Data on nine molecules can be found in US9603854B2, “Indolizine compounds, a process for their preparation and pharmaceutical compositions containing them” (LES LABORATOIRES SERVIER, priority 2012, dated 2017).

Counter-ions that a name gives are not always drawn.

Test [1] deals with RS4;11 leukaemia tumour line. The test can be described thus: In vitro cytotoxicity (Microculture Tetrazolium Assay, 48 hours). The test is classed as cell-based. The note with it: cytotoxicity for RS4;11 cells, MTT. How it is done:
The cytotoxicity studies were carried out on the RS4;11 leukaemia tumour line.
The cells are distributed onto microplates and exposed to the test compounds for 48 hours.

The test system of a further test is caspase 3. As to the kind of experiment: Induction of caspase activity in vivo (DEVDase activity in tumour lysates, RS4;11 xenograft). Also on record: species or system mice (SCID strain). The following applies: oral treatment 50 mg/kg, RS4;11 xenograft in SCID mice, 16 hours after treatment; for fold induction at 50 mg/kg: Mus musculus, read-out: Activation factor (versus control), DEVDase activity in the tumours. On the procedure:
The ability of the compounds of the invention to activate caspase 3 is evaluated in a xenograft model of RS4;11 leukaemia cells.
1×10^7 RS4;11 cells are grafted sub-cutaneously into immunosuppressed mice (SCID strain). 25 to 30 days after the graft, the animals are treated orally with the various compounds. Sixteen hours after treatment, the tumour masses are recovered and lysed, and the caspase 3 activity is measured in the tumour lysates.
This enzymatic measurement is carried out by assaying the appearance of a fluorigenic cleavage product (DEVDase activity, Promega). It is expressed in the form of an activation factor corresponding to the ratio between the two caspase activities: the activity for the treated mice divided by the activity for the control mice.

A further test addresses Bcl-2 protein (Homo sapiens (Human), UniProt P10415). The test can be described thus: Inhibition of Bcl-2 by the fluorescence polarisation technique. Type of test: binding. The following applies: Bcl-2 inhibition, fluorescence polarisation test; read-out: IC50 (nM) Bcl-2 FP. On the procedure:
The fluorescence polarisation tests were carried out on microplates (384 wells). […] After incubation for 2 hours, the fluorescence polarisation is measured.
(In fluorescence polarisation assays a small probe gives low polarisation when free and higher when bound to something large.)

A word on the IC50: it is the point on the concentration scale where inhibition reaches its midpoint.

Bcl-2 protein, sequence (P10415 whole entry): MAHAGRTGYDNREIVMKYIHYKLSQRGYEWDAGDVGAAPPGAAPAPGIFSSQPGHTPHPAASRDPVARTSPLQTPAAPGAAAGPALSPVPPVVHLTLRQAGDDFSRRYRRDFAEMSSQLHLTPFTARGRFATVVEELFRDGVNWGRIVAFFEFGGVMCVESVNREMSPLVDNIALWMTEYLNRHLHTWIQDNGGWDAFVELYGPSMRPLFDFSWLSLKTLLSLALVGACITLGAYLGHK

In test [1], `Cn1ccc2ccc(N(C(=O)c3cc(-c4cc(Cl)ccc4C(=O)N4Cc5ccccc5C[C@H]4CN4CCOCC4)n4c3CCCCC4)c3ccc(O)cc3)cc21` [Example 83, 3-{5-Chloro-2-[((3S)-3-(4-morpholinylmethyl)-3,4-dihydro-2(1H)-isoquinolinyl)carhonyl]phenyl}-N-(4-hydroxyphenyl)-N-(1-methyl-1H-indol-6-yl)-6,7,8,9-tetrahydro-5H-pyrrolo[1,2-a]azepine-1-carboxamide hydrochloride] showed an IC50 of 41.2 nM. Same read-out and setting: as for `O=C(c1cc(-c2cc3c(cc2C(=O)N2Cc4ccccc4C[C@H]2CN2CCOCC2)OCO3)n2c1CCCC2)N(c1ccc(O)cc1)c1ccc(O)cc1` [Example 6, N,N-bis(4-Hydroxyphenyl)-3-{6-[((3S)-3-(4-morpholinylmethyl)-3,4-dihydro-2(1H)-isoquinolinyl)carbonyl]-1,3-benzodioxol-5-yl}-5,6,7,8-tetrahydra-1-indolizine carboxamide hydrochloride], the figure is 30 nM. Take `Cl.Cn1ccc2cc(N(C(=O)c3cc(-c4cc(Cl)ccc4C(=O)N4Cc5ccccc5C[C@H]4CN4CCOCC4)n4ccccc34)c3ccc(O)cc3)ccc21` [Example 67, 3-{5-Chloro-2-[((3S)-3-(4-morpholinylmethyl)-3,4-dihydro-2(1H)-isoquinolinyl)carhonyl]phenyl}-N-(4-hydroxyphenyl)-N-(1-methyl-1H-indol-5-yl)-1-indolizine carboxamide hydrochloride]: the IC50 in test [1] was found to be 17.7 nM. Besides, in the test with caspase 3, the “Activation factor (versus control), DEVDase activity in the tumours” value is reported as 18.9 (50 mg/kg).

Take `Cn1ccc2cc(N(C(=O)c3cc(-c4cc5c(cc4C(=O)N4Cc6ccccc6C[C@H]4CN4CCOCC4)OCO5)n4c3CN(C(=O)OC(C)(C)C)CC4)c3ccc(O)cc3)ccc21` [Example 72]: the concentration for half-maximal inhibition (IC50) came to 220 nM on Bcl-2 protein and 270 nM in test [1]. For `O=C(c1cc(-c2cc3c(cc2C(=O)N2Cc4ccccc4C[C@H]2CN2CCOCC2)OCO3)n2ccccc12)N(c1ccccc1)c1ccc(O)cc1` [Example 58, N-(4-Hydroxyphenyl)-3-{6-[((3S)-3-(4-morpholinylmethyl)-3,4-dihydro-2(1H)-isoquinolinyl)carbonyl]-1,3-benzodioxol-5-yl}-N-phenyl-1-indolizine carboxamide hydrochloride], the IC50 was determined as 22 nM at Bcl-2 protein and 40.1 nM in test [1] (Homo sapiens). In addition, the fold induction at 50 mg/kg in the test on caspase 3 is 23.3. The molecule `Cn1ccc2cc(N(C(=O)c3cc(-c4cc5c(cc4C(=O)N4Cc6ccccc6C[C@H]4CN4CCOCC4)OCO5)n4c3CCC4)c3ccc(O)cc3)ccc21` [Example 96, N-(4-Hydroxyphenyl)-N-(1-meth-1H-indol-5-yl)-5-(6-{[(3S)-3-(morpholin-4-ylmethyl)-3,4-dihydroisoquinolin-2(1H)-yl]carbonyl}-1,3-benzodioxol-5-yl)-2,3-dihydro-1H-pyrrolizine-7-carboxamide hydrochloride] yielded an IC50 in test [1] of 58.8 nM.

For `O=C(c1cc(-c2cc3c(cc2C(=O)N2Cc4ccccc4C[C@H]2CN2CCOCC2)OCO3)n2c1CCCC2)N(c1ccc(O)cc1)c1ccc(Cl)cc1` [Example 3, N-(4-Chlorophenyl)-N-(4-hydroxyphenyl)-3-{6-[((3S)-3-(4-morpholinylmethyl)-3,4-dihydro-2(1H)-isoquinolinyl)carbonyl]-1,3-benzodioxol-5-yl}-5,6,7,8-tetrahydro-1-indolizine carboxamide hydrochloride], the concentration for half-maximal inhibition (IC50) on Bcl-2 protein came out at 20 nM; in test [1] (Homo sapiens), 44.7 nM. The fold induction at 50 mg/kg in the test with caspase 3 is 5.7. As for `CCOc1ccc(C(=O)N2Cc3ccccc3C[C@H]2CN2CCOCC2)c(-c2cc(C(=O)N(c3ccc(O)cc3)c3ccc4c(ccn4C)c3)c3n2CCCC3)c1` [Example 36, 3-{5-Ethoxy-2-[((3S)-3-(4-morpholinylmethyl)-3,4-dihydro-2(1H)-isoquinolinyl)carbonyl]phenyl}-N-(4-hydroxyphenyl)-N-(1-methyl-1H-indol-5-yl)-5,6,7,8-tetrahydro-1-indolizine carboxamide hydrochloride], in test [1] (Homo sapiens), it took 135 nM to reach half-maximal inhibition (IC50). For the molecule `CN1CCc2cc(N(C(=O)c3cc(-c4cc(Cl)ccc4C(=O)N4Cc5ccccc5C[C@H]4CN4CCOCC4)c4n3CCCC4)c3ccc(O)cc3)ccc21` [Example 43, 1-{5-Chloro-2-[((3S)-3-(4-morpholinylmethyl)-3,4-dihydro-2(1H)-isoquinolinyl)carbonyl]phenyl}-N-(4-hydroxyphenyl)-N-(1-methyl-2,3-dihydro-1H-indol-5-yl)-5,6,7,8-tetrahydro-3-indolizine carboxamide hydrochloride], the IC50 at Bcl-2 protein was 110 nM.
